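Cultured in 96-well plates, cells were exposed to test compound for 48 hours across five concentrations. TGI marks complete inhibition of growth.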
Legend:
Assay in all cases: NCI-60 cell line screen, 48 h
[1] = tested on: 786-0 renal
[2] = tested on: ACHN renal
[3] = tested on: CCRF-CEM leukemia
[4] = tested on: KM12 colon
[5] = tested on: LOX IMVI melanoma
[6] = tested on: MALME-3M melanoma
[7] = tested on: NCI-H460 lung
[8] = tested on: NCI-H522 lung
[9] = tested on: NCI/ADR-RES ovarian
[10] = tested on: OVCAR-4 ovarian
[11] = tested on: SF-268 CNS
[12] = tested on: SK-OV-3 ovarian
[13] = tested on: SR leukemia
[14] = tested on: U251 CNS
[15] = tested on: NCI-H226 lung
[16] = tested on: SN12C renal
[17] = tested on: SNB-75 CNS
[18] = tested on: TK-10 renal

Structure (SMILES) | TGI [1] [µM] | TGI [2] [µM] | TGI [3] [µM] | TGI [4] [µM] | TGI [5] [µM] | TGI [6] [µM] | TGI [7] [µM] | TGI [8] [µM] | TGI [9] [µM] | TGI [10] [µM] | TGI [11] [µM] | TGI [12] [µM] | TGI [13] [µM] | TGI [14] [µM] | TGI [15] [µM] | TGI [16] [µM] | TGI [17] [µM] | TGI [18] [µM]
Cc1cc(C)nc(NS(=O)(=O)c2ccc(Nc3nncc(=O)n3N)cc2)n1 | 29.2 | > 100 | 11.6 | > 100 | 27.7 | 41.6 | > 100 | 26.2 | 55.9 | 32.9 | 39.7 | > 100 | 42.4 | 31.5 | – | – | – | –
C#CCOC(=O)c1ccccc1O | > 100 | > 100 | > 100 | > 100 | > 100 | – | > 100 | > 100 | > 100 | > 100 | > 100 | > 100 | > 100 | > 100 | > 100 | > 100 | > 100 | > 100
COc1ccc(CN2C[C@H]3[C@@H](CC(=O)O[C@H]3C)CC2=O)cc1 | > 100 | > 100 | > 100 | > 100 | – | > 100 | > 100 | > 100 | > 100 | > 100 | > 100 | > 100 | > 100 | > 100 | – | – | > 100 | –
CC1Cc2c(Br)nc(N)nc2NC1=O (stereo not drawn) | > 100 | > 100 | – | > 100 | > 100 | > 100 | > 100 | > 100 | > 100 | > 100 | > 100 | > 100 | > 100 | > 100 | > 100 | > 100 | > 100 | > 100
O=C1C=CC2(O[C@H](c3ccccc3)[C@@H](c3ccccc3)O2)C(SC(=O)c2ccccc2)C1 (stereo partly drawn) | 1.76 | 3.01 | – | 6.87 | 2.33 | 6.54 | 15.6 | – | 3.22 | 5.13 | 3.02 | 7.01 | > 100 | 2.9 | 4.32 | 6.42 | 5.34 | 6.64
COc1c(C)c(C/C=C(\C)CCCCO[Si](C(C)C)(C(C)C)C(C)C)c(OC)c2ccccc12 | > 100 | > 100 | 89.3 | > 100 | > 100 | – | > 100 | > 100 | > 100 | > 100 | > 100 | > 100 | > 100 | > 100 | – | > 100 | > 100 | > 100
Cc1ccc(S(=O)(=O)N2CCN(S(=O)(=O)c3ccc(C)cc3)Cc3ccccc3C2)cc1 | > 100 | > 100 | > 100 | > 100 | > 100 | > 100 | > 100 | 95 | > 100 | 90.8 | > 100 | – | > 100 | – | > 100 | > 100 | – | > 100
CC1=NN(c2cccc(Cl)c2)C2(SCC(=O)N2c2nc3ccccc3s2)/C1=C\c1ccc(Cl)cc1 (stereo not drawn) | 48.1 | 46.4 | 3.31 | 34.8 | 45.2 | – | 33.3 | 39.2 | > 100 | 55.1 | 46.2 | 47.3 | 15.9 | 28.2 | 75.1 | – | – | > 100
O=C(Nc1cc(C(=O)Nc2cccc(S(=O)(=O)O)c2)cc(C(=O)Nc2cccc(S(=O)(=O)O)c2)c1)c1cccc(C(=O)Nc2cc(C(=O)Nc3cccc(S(=O)(=O)O)c3)cc(C(=O)Nc3cccc(S(=O)(=O)O)c3)c2)c1 | > 100 | > 100 | > 100 | > 100 | > 100 | > 100 | > 100 | > 100 | > 100 | > 100 | > 100 | > 100 | – | > 100 | > 100 | > 100 | > 100 | > 100
C/C=C(C)/C=C/CC(C)CCC=C(C)C (stereo not drawn) | > 100 | > 100 | > 100 | > 100 | > 100 | – | > 100 | – | > 100 | > 100 | – | > 100 | > 100 | > 100 | > 100 | > 100 | > 100 | > 100
CCOC(=O)c1ccc(Nc2nc3cc(C(F)(F)F)ccc3nc2-c2ccccc2)cc1 | 44.8 | 47.5 | > 100 | > 100 | > 100 | > 100 | > 100 | > 100 | > 100 | – | > 100 | – | > 100 | 49.5 | > 100 | > 100 | 39.4 | > 10
CC1=NN(c2nc(N)nc(CCl)n2)CC1 | 23 | 38.5 | 43.3 | 55.3 | – | – | 48.8 | 4.91 | 74.1 | 32.2 | > 100 | > 100 | 61.7 | > 100 | > 100 | > 100 | 74.1 | > 100
OC(c1nc2ccccc2s1)(C(F)(F)F)C(F)(F)F | > 100 | > 100 | > 100 | > 100 | > 100 | > 100 | > 100 | > 100 | > 100 | > 100 | > 100 | > 100 | – | > 100 | > 100 | > 100 | > 100 | > 100
CCOP(C)(=O)C(Cc1c[nH]c2ccccc12)C(=O)O (stereo not drawn) | > 100 | > 100 | > 100 | > 100 | – | > 100 | – | > 100 | > 100 | – | > 100 | > 100 | > 100 | > 100 | – | > 100 | > 100 | –
